In assay [1] the target is T1, MOD-1 (Caenorhabditis elegans, UniProt Q9GQ00). In words: cell-based.
The target of assay [2] is T1, MOD-1. In words: whole-cell patch clamp of homomeric MOD-1 expressed in BOSC-23 cells, agonist concentration-response (efficacy about […]). Format: cell-based. For orientation: In patch-clamp work, channel activity is measured electrically.
Assay [3] addresses T1, MOD-1. The assay is described as follows: whole-cell patch clamp in BOSC-23 cells, preincubation; weak partial reduction of 5-HT peak current at […]. Format: cell-based.
Assay [4] deals with T1, MOD-1. The assay is described as follows: whole-cell patch clamp in BOSC-23 cells, inhibition of […] 5-HT currents after […] s preincubation. Format: cell-based.

Molecules are shown by their SMILES.

T1 sequence (Q9GQ00 21-489): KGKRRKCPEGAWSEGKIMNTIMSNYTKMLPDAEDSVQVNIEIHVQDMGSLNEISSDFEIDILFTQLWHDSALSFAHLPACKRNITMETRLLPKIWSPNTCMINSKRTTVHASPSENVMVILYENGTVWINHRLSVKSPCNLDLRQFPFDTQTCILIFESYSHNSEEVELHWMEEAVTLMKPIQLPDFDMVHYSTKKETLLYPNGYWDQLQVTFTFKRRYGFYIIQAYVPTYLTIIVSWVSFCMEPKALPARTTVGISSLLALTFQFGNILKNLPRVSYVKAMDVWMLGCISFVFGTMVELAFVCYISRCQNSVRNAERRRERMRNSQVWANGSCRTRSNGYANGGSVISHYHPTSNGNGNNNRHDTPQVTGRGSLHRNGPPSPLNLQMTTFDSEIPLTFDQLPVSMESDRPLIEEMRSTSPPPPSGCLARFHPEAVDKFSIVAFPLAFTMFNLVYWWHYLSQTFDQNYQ

One may read the IC50 as the concentration needed to halve the response being measured. The low end stands for greater potency, the high end for weaker potency. Regarding `C1CNCCN1` [PZE, piperazine], the midpoint of inhibition against MOD-1 [1], the IC50, lay at 113 ± 29 µM.

The EC50 is the concentration at which the effect is half-maximal. `NCCc1c[nH]c2ccccc12` [Tryp, tryptamine] came in with an EC50 on MOD-1 [2] of 47 ± 11 µM. A word on the inhibition: it is the share of the control response that was lost under treatment. Higher therefore signals a strong effect. Molecule `O=C(O)C1=CCNCC1` [isoguvacine] gave an inhibition at 1000 µM on MOD-1 [3] of 23 ± 14%. Molecule `NCc1cc(=O)[nH]o1` [muscimol] had an IC50 against MOD-1 [4] of 249 ± 160 µM.

These data come from paper PMC9471462, “The nematode serotonin-gated chloride channel MOD-1: A novel target for anthelmintic therapy” (The Journal of Biological Chemistry, 2022).
